Results: patent publication US9737558B2, “Peyer's patch activator” (priority 2012, dated 2017)

What was measured:
[1] = system: IL-6 production in mouse Peyer's patch cells; test: IL-6 production induction test in Peyer's patch cell culture (ELISA); format: cell-based, C3H/HeJ mouse; details: Example 2, FIG. 4; sample untreated, versus control
Description: To a 25 mM acetate buffer (pH 4.5, 1 mg/mL) solution of the α-glucan fraction (1.5 mg) or the heteroglycan fraction (1.5 mg) were added exo-α-L-arabinofuranosidase (20 μL), exo-β-D-(1→3)-galactanase (20 μL), and endo-β-D-(1→4)-galactanase (5 μL), followed by enzyme reaction under conditions of 37° C. for 2 days. The obtained digest was heat-treated for 30 seconds in a boiling water bath to deactivate the enzyme. To a half of this enzyme reaction liquid (shown as “1,3/1,4-galactanase” in FIG. 4) was further added dextranase (0.25 units), followed by incubation for 2 days at 37° C., and subsequently, the enzyme was deactivated under the same conditions as the above to obtain an enzyme reaction liquid (shown as “dextranase” in FIG. 4). These reaction liquids were preserved at −20° C. until use. Preparation and culture of mouse Peyer's patch cells were performed in the same manner as in Test Example 1. An anti-mouse IL-6 primary antibody diluted to 1 μg/mL with a 50 mM carbonate-bicarbonate buffer (pH 9.6) (100 μL/well) was dispensed into an ELISA plate (Immuno-Maxisorp, Nunc) and incubated at 4° C. overnight. […] The developed yellow color was measured using a microplate reader (Multiskan JX, Thermo Electron Corp.) (measurement wavelength; 405 nm, blank wavelength; 492 nm).

[2] = system: Plasmodium yoelii NS (chloroquine-resistant strain); test: Oral administration test of polysaccharide fraction in combination with antimalarial agent in rodent malaria parasite (chloroquine-resistant strain) infection model; format: in vivo, Plasmodium yoelii NS in ICR mice; details: 2×10^4 infected erythrocytes; AN 3 mg/kg/day oral four times; SCE-4 600 mg/kg/day oral from 7 days before infection; versus control group (Dunnett's test)
Description: A procedure was performed in the same manner as in Example 4, except that the number of P. yoelii NS-infected erythrocytes intravenously injected to the tail vein was changed from 2×10^6 cells to 2×10^4 cells.
SCE-4 and AN were orally administered to ICR mice each day in a dose of 500 μL/mouse using a feeding needle. A dosage of SCE-4 was 600 mg/kg/day, and AN was dissolved in a 10% dimethylsulfoxide (DMSO) aqueous solution containing 0.5% Tween 80 and administered in a dosage of 3 mg/kg/day. The administration of SCE-4 was started 7 days before parasite infection and continued even after the plasmodium infection. The administration of AN was started 2 hours after the parasite infection and continued until Day 3 after the plasmodium infection (four times in total). In addition, SCE-4 was administered 3 hours or more after the administration of AN.
To a control group, water and a 10% DMSO aqueous solution containing 0.5% Tween 80 were orally administered, and to AN3 groups, water and a 10% DMSO aqueous solution of AN containing 0.5% Tween 80 were orally administered, and to SCE-4+AN3 groups, an SCE-4 aqueous solution and a 10% DMSO aqueous solution of AN containing 0.5% Tween 80 were orally administered.
Calculation was performed in the same manner as in Example 3.

Compound | amount of IL-6 production [1] | infection rate of erythrocytes (Parasitemia), Day 4 and Day 5 [2]
dextran | no change in the amount of IL-6 production was observed | –
C[C@H]1[C@H](OC(=O)CCC(=O)O)O[C@@H]2O[C@@]3(C)CC[C@H]4[C@H](C)CC[C@@H]1[C@@]24OO3 [AN, artesunate] | – | the infection rate significantly decreased on Day 4 and Day 5 as compared with the control group
